The values that follow are results of earlier work, collected in paper PMC11923824, “Spider-derived peptide LCTx-F2 suppresses ASIC channels by occupying the acidic pocket” (The Journal of Biological Chemistry, 2025).

What is called IC50 is the concentration at which inhibition is half-maximal.

One data set deals with ASIC3 channel. The conditions noted are these: nonproton ligand. An excerpt:
(§1) ASIC channels, particularly ASIC1a and ASIC3, are affected by certain cations like Ca^2+ and Zn^2+, which provides valuable insights for the development of novel drugs targeting ASICs. […] Depletion of insulin leads to an increase in ASIC1a channel expression in Chinese hamster ovary cells and neurons.

For the next data set, the system named is neuron. The conditions noted are these: no reference given.
Source text: as §1

The subject of the next data set is ASICs. The conditions noted are these: no reference given.
Source text: as §1

A further data set has as its system humans. The conditions noted are these: no reference given.
Source text: as §1

Another data set has as its system human ASIC3 channel. An excerpt: (§2) ASICs play a crucial role in pain perception among mammals ([39], [40]). Some animal toxins that are involved in prey capture and defense mechanisms act on ASICs ([26], [41]). For instance, the venom from Micrurus tener tener causes intense and persistent pain by enhancing the activation of ASICs through the MitTx toxin ([27]). ASICs are also considered important targets for pain relief, and certain chemicals that block their activity have shown strong analgesic effects in tests with living organisms ([42], [43]).

The next data set concerns the target T1, rASIC3 channel (Rattus norvegicus, UniProt O35240).
T1 construct: expressed in transfected cells; host or cells: human embryonic kidney 293 cells
T1 sequence (O35240 1-533): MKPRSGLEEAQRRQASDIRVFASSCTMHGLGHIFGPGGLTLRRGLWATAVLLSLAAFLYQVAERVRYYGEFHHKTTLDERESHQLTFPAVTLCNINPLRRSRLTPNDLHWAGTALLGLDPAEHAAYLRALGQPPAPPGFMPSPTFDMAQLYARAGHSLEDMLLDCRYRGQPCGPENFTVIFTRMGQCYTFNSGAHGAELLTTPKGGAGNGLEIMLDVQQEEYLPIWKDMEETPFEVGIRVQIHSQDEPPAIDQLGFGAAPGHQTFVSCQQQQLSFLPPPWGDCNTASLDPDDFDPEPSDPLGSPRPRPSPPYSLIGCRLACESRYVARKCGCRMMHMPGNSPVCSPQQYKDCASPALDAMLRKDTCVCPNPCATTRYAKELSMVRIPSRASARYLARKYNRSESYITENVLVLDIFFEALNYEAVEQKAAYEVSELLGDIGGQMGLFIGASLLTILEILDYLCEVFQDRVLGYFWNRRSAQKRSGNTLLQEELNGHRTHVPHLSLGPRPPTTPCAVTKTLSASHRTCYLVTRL
Source text: as §2, with “Venom serves as a crucial weapon for animals in hunting prey and defending against enemies. Spider venom contains a variety of peptide toxins, some of which induce pain by targeting different ion channels ([29], [30], [31]), whereas others have analgesic properties and block the pain pathway ([32], [33], [34]). […] Derived from the spider Lycosa singoriensis, LCTx-F2 enhances ... || ASICs play” for “ASICs play”

Another data set concerns ASIC1a channel. An excerpt: ASIC channels, particularly ASIC1a and ASIC3, are affected by certain cations like Ca^2+ and Zn^2+, which provides valuable insights for the development of novel drugs targeting ASICs. […] Depletion of insulin leads to an increase in ASIC1a channel expression in Chinese hamster ovary cells and neurons. […] Spider venom contains a variety of peptide toxins, some of which induce pain by targeting different ion channels ([29], [30], [31]), whereas others have analgesic properties and block the pain pathway ([32], [33], [34]). […] Derived from the spider Lycosa singoriensis, LCTx-F2 enhances ...

The test system of the next data set is rASIC2a channel. The source says: Venom serves as a crucial weapon for animals in hunting prey and defending against enemies. Spider venom contains a variety of peptide toxins, some of which induce pain by targeting different ion channels ([29], [30], [31]), whereas others have analgesic properties and block the pain pathway ([32], [33], [34]). […] Derived from the spider Lycosa singoriensis, LCTx-F2 enhances ...

The next data set has as its system ischemic stroke.
Source text: as §1

Data set [1] relates to ASICs in dorsal root ganglion neurons. The note with it: no reference given.
Source text: as §1

Another data set relates to hASIC1a channel. The note with it: interacts with helix α5 of the thumb domain.
In data set [2] the test system is ASIC1a channel in Xenopus oocytes. The conditions noted are these: no reference given.
Source text: as §1

Consider `Cc1nc(NC(=N)N)nc2ccccc12` [2-guanidine-4-methylquinazoline], for which the “activation of ASIC3” value with ASIC3 channel is listed as “activated”.

With `N=C(N)NC(=O)c1nc(Cl)c(N)nc1N` [Amiloride], the “protection against acidosis-induced neuron damage” value in the data set with neuron is listed as “provides protection against acidosis-induced neuron damage”. The “effect on ASICs, amiloride” value in the data set on ASICs is reported as “can suppress most ASICs”. The “analgesic effect in humans” value in the data set with humans was “has shown analgesic effects in humans”.

Take APETx2: the “inhibition of hASIC3 (in words)” value in the data set on human ASIC3 channel is “inhibit both rASIC3 and hASIC3 channels”. For the same molecule, the concentration for half-maximal inhibition (IC50) in the data set with human ASIC3 channel (read-out: IC50 against human ASIC3 channel) is 175 nM. In addition, the “effect on rASIC3 (in words)” value on rASIC3 channel is “inhibit both rASIC3 and hASIC3 channels”.

PcTx1: in the data set on ASIC1a channel, the “effect on ASIC1a (in words)” value was “selectively inhibit the ASIC1a channel” and the “site of action on ASIC1a” value is listed as “inserts into the acidic pocket of ASIC1a channels”. The “effect on rASIC2a (in words)” value in the data set on rASIC2a channel is “not the rASIC2a or rASIC3 channels”. In addition, the “neuroprotection in ischemic stroke” value in the data set with ischemic stroke was “exhibits neuroprotection”.

Turning to “bradykinin: proinflammatory mediator (RPPGFSPFR; Bradykinin; UniProt P01042 381-389, looked up)”, the “effect on ASIC expression” value in data set [1] is “increase the expression of ASICs”.

Consider “mambalgin-1: snake toxin mambalgin-1 (LKCYQHGKVVTCHRDMKFCYHNTGMPFRNLKLILQGCSSSCSETENNKCCSTDRCNK; UniProt P0DKR6 22-78, looked up)”, for which, in the data set on hASIC1a channel, the “effect on proton sensitivity of hASIC1a” value is reported as “reduces the proton sensitivity”.

For the molecule “nerve growth factor: proinflammatory mediator”, the “effect on ASIC expression” value in data set [1] is reported as “increase the expression of ASICs”.

B1: matriptase: protease cleaving ASIC1a (protein, UniProt Q9Y5Y6 1-855, looked up)
Suppressor of tumorigenicity …: MGSDRARKGGGGPKDFGAGLKYNSRHEKVNGLEEGVEFLPVNNVKKVEKHGPGRWVVLAAVLIGLLLVLLGIGFLVWHLQYRDVRVQKVFNGYMRITNENFVDAYENSNSTEFVSLASKVKDALKLLYSGVPFLGPYHKESAVTAFSEGSVIAYYWSEFSIPQHLVEEAERVMAEERVVMLPPRARSLKSFVVTSVVAFPTDSKTVQRTQDNSCSFGLHARGVELMRFTTPGFPDSPYPAHARCQWALRGDADSVLSLTFRSFDLASCDERGSDLVTVYNTLSPMEPHALVQLCGTYPPSYNLTFHSSQNVLLITLITNTERRHPGFEATFFQLPRMSSCGGRLRKAQGTFNSPYYPGHYPPNIDCTWNIEVPNNQHVKVRFKFFYLLEPGVPAGTCPKDYVEINGEKYCGERSQFVVTSNSNKITVRFHSDQSYTDTGFLAEYLSYDSSDPCPGQFTCRTGRCIRKELRCDGWADCTDHSDELNCSCDAGHQFTCKNKFCKPLFWVCDSVNDCGDNSDEQGCSCPAQTFRCSNGKCLSKSQQCNGKDDCGDGSDEASCPKVNVVTCTKHTYRCLNGLCLSKGNPECDGKEDCSDGSDEKDCDCGLRSFTRQARVVGGTDADEGEWPWQVSLHALGQGHICGASLISPNWLVSAAHCYIDDRGFRYSDPTQWTAFLGLHDQSQRSAPGVQERRLKRIISHPFFNDFTFDYDIALLELEKPAEYSSMVRPICLPDASHVFPAGKAIWVTGWGHTQYGGTGALILQKGEIRVINQTTCENLLPQQITPRMMCVGFLSGGVDSCQGDSGGPLSSVEADGRIFQAGVVSWGDGCAQRNKPGVYTRLPLFRDWIKENTGV
In the case of B1, the “effect of cleavage on ASIC1a current” value in [2] was “reduces its current”.
